Measured values reported in patent US20190125648A1, “COMPOSITION FOR PREVENTING, IMPROVING OR TREATING HAIR LOSS COMPRISING DEOXYCHOLIC ACID AS ACTIVE INGREDIENT” (priority 2016, published 2019).

Tested on: B6CBAF1/j hybrid mice
Assay: Testosterone-induced hair loss in mice: hair loss area and follicle count
Type: in vivo
Settings: after two weeks; testosterone 10 mg/ml + each test substance 1 mg/ml; compared to testosterone alone (group T); FIG. 3
Experimental: B6CBAF1/j hybrid mice (5 weeks old, male, Charles River Japan) were acclimated for one week in a breeding room and then used from the time of 6 weeks after birth.
For use in an injection agent, a solvent was prepared to contain 15% of ethanol, 5% of NMP, and 80% of PBS. Solutions were prepared by mixing the solvent with the following solutes: group T (testosterone 10 mg/ml), group TD (testosterone 10 mg/ml+deoxycholic acid 1 mg/ml), group TR (testosterone 10 mg/ml+resveratrol 1 mg/ml), group TF (testosterone 10 mg/ml+finasteride 1 mg/ml), and group TRF (testosterone 10 mg/ml+resveratrol 1 mg/ml+finasteride 1 mg/ml).
The animals were anesthetized with isoflurane through inhalation and injected subcutaneously at the neck with 100 μl of a testosterone solution (10 mg/ml) every day. From a couple of weeks, they were photographed along with a scale bar to quantify a hair loss area. After six weeks of testing, the mice were sacrificed by means of a CO2 incubator. Test areas of the skin were taken, fixed with formalin, and prepared into paraffin blocks. The blocks were horizontally sectioned and dyed with H&E (Hematoxylin & Eosin) to count follicles per mm^2.

Oc1ccc(C=Cc2cc(O)cc(O)c2)cc1 [resveratrol]
increment in hair loss area: greatly reduced
